Tests used:
[1] = Hepatic clearance in Sprague-Dawley rat by LC-MS/MS analysis; format: ADME; conditions: in vivo
[2] = biological target: T1, Phosphatidylinositol 4,5-bisphosphate 3-kinase catalytic subunit gamma isoform (Homo sapiens, UniProt P48736); assay: Inhibition of PI3Kgamma (unknown origin) in […] stimulated human THP-1 cells assessed as reduction in Akt phosphorylation level at Ser473 residue preincubated for 60 mins followed by rhMCP-1 stimulation and measured after 2 mins by AlphaLisa assay; format: cell-based
T1 sequence (P48736 whole entry, canonical isoform): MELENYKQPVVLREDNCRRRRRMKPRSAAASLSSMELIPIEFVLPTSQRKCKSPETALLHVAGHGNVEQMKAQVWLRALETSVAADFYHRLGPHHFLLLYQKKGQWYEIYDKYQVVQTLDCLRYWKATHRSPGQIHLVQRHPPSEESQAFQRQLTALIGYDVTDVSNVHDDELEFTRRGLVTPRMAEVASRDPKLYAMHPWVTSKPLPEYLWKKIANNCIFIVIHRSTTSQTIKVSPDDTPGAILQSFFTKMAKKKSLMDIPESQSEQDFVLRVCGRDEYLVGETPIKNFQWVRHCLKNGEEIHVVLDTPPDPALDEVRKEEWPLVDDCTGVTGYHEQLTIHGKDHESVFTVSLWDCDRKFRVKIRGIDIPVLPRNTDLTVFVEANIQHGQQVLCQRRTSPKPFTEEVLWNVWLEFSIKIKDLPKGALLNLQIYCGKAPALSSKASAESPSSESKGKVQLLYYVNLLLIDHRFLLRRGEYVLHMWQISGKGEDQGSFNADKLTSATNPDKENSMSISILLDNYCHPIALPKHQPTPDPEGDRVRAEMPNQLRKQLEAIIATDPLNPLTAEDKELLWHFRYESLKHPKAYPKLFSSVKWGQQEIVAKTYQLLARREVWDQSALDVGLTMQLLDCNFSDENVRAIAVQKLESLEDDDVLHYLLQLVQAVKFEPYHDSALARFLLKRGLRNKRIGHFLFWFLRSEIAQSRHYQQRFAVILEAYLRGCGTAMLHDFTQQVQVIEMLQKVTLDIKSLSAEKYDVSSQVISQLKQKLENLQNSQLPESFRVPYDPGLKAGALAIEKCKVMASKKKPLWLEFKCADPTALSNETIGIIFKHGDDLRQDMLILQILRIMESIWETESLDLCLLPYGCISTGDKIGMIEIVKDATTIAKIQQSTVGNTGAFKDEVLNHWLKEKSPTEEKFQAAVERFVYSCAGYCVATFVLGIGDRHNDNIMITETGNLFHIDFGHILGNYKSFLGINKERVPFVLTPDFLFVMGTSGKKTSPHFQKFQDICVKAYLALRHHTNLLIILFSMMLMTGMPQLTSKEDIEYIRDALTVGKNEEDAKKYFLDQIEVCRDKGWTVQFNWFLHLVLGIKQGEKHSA

[3] = biological target: T1, Phosphatidylinositol 4,5-bisphosphate 3-kinase catalytic subunit gamma isoform; assay: Inhibition of PI3Kgamma (unknown origin) using PIP2 as substrate preincubated for 1 hr followed by substrate addition and measured after 60 mins in presence of ATP by ADP-glo assay
[4] = Metabolic stability in human hepatocytes assessed as intrinsic clearance per 10^6 cells at 0.5 uM by LC-MS/MS analysis; format: ADME, cell-based, Hepatocyte; conditions: read-out: CLH
[5] = Metabolic stability in rat hepatocyte assessed as intrinsic clearance per 10^8 cells at 0.5 uM by LC-MS/MS analysis; format: ADME, cell-based; conditions: hepatocytes
[6] = biological target: Phosphatidylinositol 4,5-bisphosphate 3-kinase catalytic subunit alpha isoform (Homo sapiens, UniProt P42336); assay: Inhibition of PI3Kalpha (unknown origin) using PIP2 as substrate preincubated for 1 hr followed by substrate addition and measured after 60 mins in presence of ATP by ADP-glo assay
Chain of Phosphatidylinositol 4,5-bisphosphate 3-kinase catalytic subunit alpha isoform (P42336 whole entry, canonical isoform): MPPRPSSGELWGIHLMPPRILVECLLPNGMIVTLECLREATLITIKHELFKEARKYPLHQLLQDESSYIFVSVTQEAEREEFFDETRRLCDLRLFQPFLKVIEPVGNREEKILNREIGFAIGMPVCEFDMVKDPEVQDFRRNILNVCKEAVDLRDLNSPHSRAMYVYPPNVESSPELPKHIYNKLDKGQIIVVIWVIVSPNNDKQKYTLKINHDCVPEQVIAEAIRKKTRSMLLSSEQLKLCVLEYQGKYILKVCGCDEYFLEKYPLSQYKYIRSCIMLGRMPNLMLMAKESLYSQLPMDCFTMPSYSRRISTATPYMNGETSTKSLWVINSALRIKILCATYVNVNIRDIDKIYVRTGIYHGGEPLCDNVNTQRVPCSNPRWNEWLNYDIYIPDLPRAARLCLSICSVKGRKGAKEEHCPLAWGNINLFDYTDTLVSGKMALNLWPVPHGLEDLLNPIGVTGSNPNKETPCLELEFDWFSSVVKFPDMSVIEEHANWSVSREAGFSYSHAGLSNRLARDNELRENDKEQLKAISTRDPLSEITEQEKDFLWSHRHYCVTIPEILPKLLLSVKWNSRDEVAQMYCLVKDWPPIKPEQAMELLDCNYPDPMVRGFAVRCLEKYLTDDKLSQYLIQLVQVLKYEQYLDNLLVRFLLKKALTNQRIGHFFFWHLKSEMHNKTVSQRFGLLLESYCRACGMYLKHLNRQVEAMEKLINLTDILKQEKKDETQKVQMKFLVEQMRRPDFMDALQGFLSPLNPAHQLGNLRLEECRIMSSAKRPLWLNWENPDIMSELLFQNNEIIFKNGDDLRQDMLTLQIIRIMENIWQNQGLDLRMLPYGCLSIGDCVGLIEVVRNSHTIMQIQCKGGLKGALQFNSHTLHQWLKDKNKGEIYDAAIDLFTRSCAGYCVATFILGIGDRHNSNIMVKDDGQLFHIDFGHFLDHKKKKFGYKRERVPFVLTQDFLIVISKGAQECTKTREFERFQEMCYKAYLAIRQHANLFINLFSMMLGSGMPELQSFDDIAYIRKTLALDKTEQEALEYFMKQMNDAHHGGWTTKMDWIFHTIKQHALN

[7] = biological target: T2, Phosphatidylinositol 4,5-bisphosphate 3-kinase catalytic subunit delta isoform (Homo sapiens, UniProt O00329); assay: Inhibition of PI3Kdelta (unknown origin) using PIP2 as substrate preincubated for 1 hr followed by substrate addition and measured after 60 mins in presence of ATP by ADP-glo assay
T2 sequence (O00329 whole entry): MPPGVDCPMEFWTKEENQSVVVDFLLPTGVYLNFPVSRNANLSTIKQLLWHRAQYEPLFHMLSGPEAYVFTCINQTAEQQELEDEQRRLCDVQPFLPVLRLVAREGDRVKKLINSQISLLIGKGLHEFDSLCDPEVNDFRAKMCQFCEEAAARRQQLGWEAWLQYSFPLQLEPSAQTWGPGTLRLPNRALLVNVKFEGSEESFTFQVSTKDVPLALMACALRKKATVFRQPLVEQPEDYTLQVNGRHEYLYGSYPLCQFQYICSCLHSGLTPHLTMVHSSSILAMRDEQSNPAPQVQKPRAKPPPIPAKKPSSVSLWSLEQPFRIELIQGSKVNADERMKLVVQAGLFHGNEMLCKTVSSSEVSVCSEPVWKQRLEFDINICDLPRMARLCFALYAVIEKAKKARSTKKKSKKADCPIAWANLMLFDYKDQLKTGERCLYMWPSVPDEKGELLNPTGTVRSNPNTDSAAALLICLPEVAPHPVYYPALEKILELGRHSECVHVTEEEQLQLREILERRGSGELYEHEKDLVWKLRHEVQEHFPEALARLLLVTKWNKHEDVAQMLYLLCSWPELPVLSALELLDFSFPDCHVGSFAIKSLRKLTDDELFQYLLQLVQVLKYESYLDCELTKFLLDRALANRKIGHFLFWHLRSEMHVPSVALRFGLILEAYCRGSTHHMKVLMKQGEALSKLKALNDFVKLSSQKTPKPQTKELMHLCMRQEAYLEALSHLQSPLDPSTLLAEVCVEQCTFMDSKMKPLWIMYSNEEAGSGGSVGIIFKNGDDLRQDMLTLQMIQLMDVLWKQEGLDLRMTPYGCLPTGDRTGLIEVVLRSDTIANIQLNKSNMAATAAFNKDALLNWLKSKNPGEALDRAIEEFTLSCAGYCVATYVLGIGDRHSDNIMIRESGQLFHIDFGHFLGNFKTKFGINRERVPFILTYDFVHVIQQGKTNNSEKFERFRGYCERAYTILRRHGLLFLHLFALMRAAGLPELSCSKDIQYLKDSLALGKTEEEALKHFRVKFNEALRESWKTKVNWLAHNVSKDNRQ

Homo sapiens [8] = species on record: Homo sapiens; assay: Selectivity ratio of IC50 for inhibition of PI3Kalpha (unknown origin) to IC50 for inhibition of PI3Kgamma (unknown origin)
Homo sapiens [9] = species on record: Homo sapiens; assay: Selectivity ratio of IC50 for inhibition of PI3Kdelta (unknown origin) to IC50 for inhibition of PI3Kgamma (unknown origin)
CYP3A4 = CYP3A4 (Homo sapiens, UniProt P08684); assay: in vitro; conditions: human liver microsomes, probe midazolam
Chain of CYP3A4 (P08684 whole entry): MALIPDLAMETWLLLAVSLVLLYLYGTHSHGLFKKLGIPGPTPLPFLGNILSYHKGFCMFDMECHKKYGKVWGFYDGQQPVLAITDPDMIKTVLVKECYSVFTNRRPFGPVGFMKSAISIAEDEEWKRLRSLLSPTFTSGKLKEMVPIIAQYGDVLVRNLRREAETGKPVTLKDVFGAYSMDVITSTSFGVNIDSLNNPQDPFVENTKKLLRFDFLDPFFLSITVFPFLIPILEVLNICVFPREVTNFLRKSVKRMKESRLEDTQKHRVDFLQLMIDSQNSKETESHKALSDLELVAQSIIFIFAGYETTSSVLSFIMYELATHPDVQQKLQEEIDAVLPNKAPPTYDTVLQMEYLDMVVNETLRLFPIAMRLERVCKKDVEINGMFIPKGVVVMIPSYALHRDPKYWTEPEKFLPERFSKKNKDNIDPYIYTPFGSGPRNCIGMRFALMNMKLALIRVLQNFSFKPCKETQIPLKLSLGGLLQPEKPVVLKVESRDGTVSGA
Description: Time dependent inhibition of CYP3A4 in human liver microsomes at 10 uM using midazolam as substrate preincubated for 30 mins in presence of NADPH by LC/MS/MS analysis relative to control

Structure (SMILES)	CLH [1]	IC50 [2]	IC50 [3]	hepatocyte CLint at 0.5 µM [4]	hepatocyte intrinsic clearance [5]	IC50 [6]	IC50 [7]	Ratio IC50 (Homo sapiens [8])	Ratio IC50 (Homo sapiens [9])	inhibition at 30 min, 10 µM (CYP3A4)
C[C@@H](C1CC1)N1Cc2cc(-c3ccn4nc(N)c(C(=O)NC5CC5)c4n3)cc(S(=O)(=O)C3CC3)c2C1=O	41.7 mL/min/kg	0.056 µM	0.0017 µM	1.99 µL/min/1e6 cells	< 1.2 µL/min	0.384 µM	0.172 µM	223	100	23%
Cc1cc(-c2ccn3nc(N)c(C(=O)NC4COC4)c3n2)cc2c1C(=O)N([C@@H](C)C1CC1)C2	33 mL/min/kg	0.156 µM	0.0018 µM	6.21 µL/min/1e6 cells	4.59 µL/min	0.833 µM	0.698 µM	464	388	12%
Cc1cc(-c2ccn3nc(N)c(C(=O)NC4CC4)c3n2)cc2c1C(=O)N([C@@H](C)C1CC1)C2	6.7 mL/min/kg	0.212 µM	0.0036 µM	8.92 µL/min/1e6 cells	1.5 µL/min	3.3 µM	1.67 µM	904	460	27%
C[C@@H](C1CC1)N1Cc2cc(-c3ccn4nc(N)c(C(=O)NC5CC5)c4n3)cc(OC(F)(F)F)c2C1=O	8.3 mL/min/kg	0.058 µM	0.0036 µM	1.67 µL/min/1e6 cells	< 1.2 µL/min	1.48 µM	1.86 µM	411	518	20%
Cc1cc(-c2ccn3nc(N)c(C(=O)NC4CCC4)c3n2)cc2c1C(=O)N([C@@H](C)C1CC1)C2	76.7 mL/min/kg	0.292 µM	0.0023 µM	29.3 µL/min/1e6 cells	82.7 µL/min	3.66 µM	1.59 µM	1580	668	46%
Cc1cc(-c2ccn3ncc(C(=O)Nc4cnn(C)c4)c3n2)cc2c1C(=O)N([C@@H](C)C1CC1)C2	48.3 mL/min/kg	0.638 µM	0.0341 µM	7.31 µL/min/1e6 cells	12.2 µL/min					33%
Cc1cc(-c2ccn3nc(N)c(C(=O)N[C@H](C)CO)c3n2)cc2c1C(=O)N([C@@H](C)C1CC1)C2	15 mL/min/kg	0.186 µM	0.0035 µM	1.31 µL/min/1e6 cells	< 1.2 µL/min	0.713 µM	1.28 µM	205	415	19%
C[C@@H](C1CC1)N1Cc2cc(-c3ccn4nc(N)c(C(=O)NC5CC5)c4n3)cc(S(C)(=O)=O)c2C1=O	88.3 mL/min/kg	0.043 µM	0.0024 µM	< 1.2 µL/min/1e6 cells	< 1.2 µL/min	0.351 µM	0.56 µM	148	236	4%
CCS(=O)(=O)c1cc(-c2ccn3nc(N)c(C(=O)NC4CC4)c3n2)cc2c1C(=O)N([C@@H](C)C1CC1)C2	68.3 mL/min/kg	0.067 µM	0.0048 µM	2.03 µL/min/1e6 cells	< 1.2 µL/min	0.808 µM	0.835 µM	170	175	16%
Cc1cc(-c2ccn3nc(N)c(C(=O)N[C@H]4CNC(=O)C4)c3n2)cc2c1C(=O)N([C@@H](C)C1CC1)C2	73.3 mL/min/kg	0.11 µM	0.0018 µM	< 1.2 µL/min/1e6 cells	2.73 µL/min	0.995 µM	0.769 µM	568	439	4%

From ChEMBL document CHEMBL5154644, “Design, Synthesis, and Structure-Activity Relationship Optimization of Pyrazolopyrimidine Amide Inhibitors of Phosphoinositide 3-Kinase γ (PI3Kγ)” (J Med Chem, 2022)
